Like-named read-outs stand apart in the source and are kept apart here.
Experiments:
CETP [1] = biological target: T1, CETP (Homo sapiens, UniProt P11597); assay: CETP fluorescence test; format: biochemical; conditions: CETP from human plasma, 37° C., 4 hours; read-out: IC50 (nM) Fluor. test
T1 construct: CETP is obtained in partially purified form from human plasma; from tissue; host or cells: human plasma
T1 sequence (P11597 18-493): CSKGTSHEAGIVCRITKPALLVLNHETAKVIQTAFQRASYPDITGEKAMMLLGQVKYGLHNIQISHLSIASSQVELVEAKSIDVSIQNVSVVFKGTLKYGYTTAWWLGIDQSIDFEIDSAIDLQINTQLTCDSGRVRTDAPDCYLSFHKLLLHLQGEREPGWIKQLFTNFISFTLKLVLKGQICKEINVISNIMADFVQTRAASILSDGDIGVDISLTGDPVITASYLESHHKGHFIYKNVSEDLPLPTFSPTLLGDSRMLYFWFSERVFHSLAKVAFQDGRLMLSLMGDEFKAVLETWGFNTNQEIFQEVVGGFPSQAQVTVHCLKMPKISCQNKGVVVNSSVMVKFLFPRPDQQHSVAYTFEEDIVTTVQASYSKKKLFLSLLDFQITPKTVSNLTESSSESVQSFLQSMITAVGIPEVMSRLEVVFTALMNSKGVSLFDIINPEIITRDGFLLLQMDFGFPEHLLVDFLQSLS
Description: (§1) CETP is obtained in partially purified form from human plasma by differential centrifugation and column chromatography and used for the test. To this end, human plasma is adjusted to a density of 1.21 g per ml using NaBr and centrifuged at 4° C. at 50000 rpm for 18 h. The bottom fraction (d>1.21 g/ml) is applied to a Sephadex® Phenyl-Sepharose 4B (Pharmacia) column, washed with 0.15 M NaCl/0.001 M tris HCl pH 7.4 and then eluted with dist. water. Die CETP-active fractions are pooled, dialysed against 50 mM Na acetate pH 4.5 and applied to a CM-Sepharose® (Pharmacia) column. The mixture is then eluted using a linear gradient (0-1 M NaCl). The pooled CETP fractions are dialysed against 10 mM TrisHCl pH 7.4 and then further purified by chromatography on a Mono Q® column (Pharmacia).
Measurement of the CETP-catalysed transfer of a fluorescent cholesterol ester between liposomes—modified according to the procedure of Bisgaier et al., J. Lipid Res. 34, 1625 (1993).
For the production of the donor liposomes, 1 mg of cholesteryl 4,4-difluoro-5,7-dimethyl-4-bora-3a,4a-diaza-s-indacene-3-dodecanoate (cholesteryl BODIPY® FL C12, Molecular Probes) is dissolved in 600 μl of dioxane with 5.35 mg of triolein and 6.67 mg of phosphatidylcholine with gentle warming in an ultrasonic bath and this solution is added very slowly with ultrasonication to 63 ml of 50 mM tris/HCl, 150 mM NaCl, 2 mM EDTA buffer pH 7.3 at RT.
The suspension is then ultrasonicated under an N2 atmosphere for 30 minutes in the Braukson ultrasonic bath at about 50 watts, the temperature being kept at about 20° C.
The acceptor liposomes are obtained analogously from 86 mg of cholesteryl oleate, 20 mg of triolein and 100 mg of phosphatidylcholine dissolved in 1.2 ml of dioxane and 114 ml of above buffer by ultrasonication at 50 watts (20° C.) for 30 minutes.
For testing, a test mix consisting of 1 part of above buffer, 1 part of donor liposomes and 2 parts of acceptor liposomes is used.
80 μl of test mix are treated with 1-3 μg of enriched CETP fraction, obtained from human plasma by means of hydrophobic chromatography, and 2 μl of the substance to be investigated in DMSO and incubated at 37° C. for 4 hours.
The change in the fluorescence at 485/535 nm is a measure of the CE transfer; the inhibition of the transfer in comparison to the control batch without substance is determined.

[2] = biological target: T2, CETP activity in the serum (Homo sapiens, UniProt P11597); assay: Ex vivo activities on transgenic hCETP mice (serum CETP activity after oral administration); conditions: mouse, cholesteryl ester transport in serum
T2 construct: determination of its basal CETP activity in the serum; from tissue; host or cells: serum of transgenic hCETP mice
T2 sequence (P11597 18-493): T1 sequence (P11597 18-493)
Description: To test for CETP-inhibitory activity, the substances are administered orally using a stomach tube to transgenic hCETP mice of our own breeding (Dinchuk et al. BBA (1995) 1295-301). To this end, male mice are randomly assigned to groups having an equal number of animals, as a rule n=3, one day before the start of the experiment. Before administration of the substance, blood is taken from each mouse by puncture of the retroorbital venous plexus for the determination of its basal CETP activity in the serum (T1). The test substance is then administered to the animals using the stomach tube. At specific times after administration of the test substance, blood is taken from the animals by puncture a second time (T2), as a rule 1, or 3 and 6 h after substance administration, but if appropriate this can also be carried out at another time.
In order to be able to assess the inhibitory activity of a substance, for each time, i.e. 1 or 3 or 6 h, a corresponding control group is employed whose animals only receive the formulating agent without substance. In the control animals, the second blood sampling per animal is carried out as in the substance-treated animals in order to be able to determine the change in the CETP activity without inhibitor over the corresponding experimental time interval (1, 3 or 6 h).
After termination of the clotting, the blood samples are centrifuged and the serum is removed by pipette.
For the determination of the CETP activity, the cholesteryl ester transport over 4 h is determined. To this end, as a rule 2 μl of serum are employed in the test batch and the test is carried out as described under “CETP fluorescence test”.
The differences in the cholesteryl ester transport (pM CE*/h (T2)−pM CE*/h (T1)) are calculated for each animal and averaged in the groups. A substance which at one of the times reduces the cholesteryl ester transport by >30% is regarded as active.

CETP [3] = biological target: T1, CETP; assay: CETP-SPA test; format: biochemical; conditions: 3H-cholesterol ester transfer from HDL to biotin-LDL, 37° C., 18 h
Description: as §1
50 ml of fresh human EDTA plasma are adjusted to a density of 1.12 using NaBr and centrifuged at 4° C. in a Ty 65 rotor at 50000 rpm for 18 h. The upper phase is used for the obtainment of cold LDL. The lower phase is dialysed against 3×41 of PDB buffer (10 mM tris/HCl pH 7.4, […], 1 mM EDTA, 0.02% NaN3). Per 10 ml of retentate volume, 20 μl of 3H-cholesterol (Dupont NET-725; 1 μC/μl dissolved in ethanol!) is then added and the mixture is incubated at 37° C. under N2 for 72 h.
The batch is then adjusted to the density 1.21 using NaBr and centrifuged at 20° C. in a Ty 65 rotor at 50000 rpm for 18 h. The upper phase is recovered and the lipoprotein fractions are purified by gradient centrifugation. To this end, the isolated, labelled lipoprotein fraction is adjusted to a density of 1.26 using NaBr. 4 ml each of this solution are covered in centrifuged tubes (SW 40 rotor) with a layer of 4 ml of a solution of density 1.21 and 4.5 ml of a solution of 1.063 (density solutions of PDB buffer and NaBr) and then centrifuged for 24 h at 38000 rpm and 20° C. in the SW 40 rotor. The intermediate layer lying between the density 1.063 and 1.21, containing the labelled HDL, is dialysed against 3×100 volumes of PDB buffer at 4° C.
The retentate contains radiolabelled ^3H-CE-HDL, which, adjusted to about 5×10^6 cmp per ml, is used for the test.
For testing of the CETP activity, the transfer of ^3H-cholesterol ester from human HD lipoproteins to biotinylated LD lipoproteins is measured.
The reaction is ended by addition of streptavidin-SPA®beads (Amersham) and the transferred radioactivity is determined directly in a liquid scintillation counter.
In the test batch, 10 μl of HDL-^3H-cholesterol ester (˜50000 cpm) are incubated at 37° C. for 18 h with 10 μl of biotin-LDL (Amersham) in 50 mM Hepes/0.15 M NaCl/0.1% bovine serum albumin/0.05% NaN3 pH 7.4 containing 10 μl of CETP (1 mg/ml) and 3 μl of solution of the substance to be tested (dissolved in 10% DMSO/1% RSA). 200 μl of the SPA-streptavidin bead solution (TRKQ 7005) are then added, incubated further with shaking for 1 h and then measured in a scintillation counter.
Corresponding incubations with 10 μl of buffer, 10 μl of CETP at 4° C. and 10 μl of CETP at 37° C. serve as controls.
The activity transferred in the control batches with CETP at 37° C. is rated as 100% transfer. The substance concentration at which this transfer is reduced to half is specified as the IC50 value.

[4] = 1 h after administration, read-out: % inhibition at 30 mg/kg, 1 h
[5] = 3 h after administration, read-out: % inhibition at 30 mg/kg, 3 h
[6] = 6 h after administration, read-out: % inhibition at 30 mg/kg, 6 h

| IC50 (CETP [1]) [nM] | inhibition at 30 mg/kg [2, 4] [%] | inhibition at 30 mg/kg [2, 5] [%] | inhibition at 30 mg/kg [2, 6] [%] | IC50 (CETP [3]) [nM] | Compound |
| --- | --- | --- | --- | --- | --- |
| 65 | – | – | – | – | O[C@@H](c1ccc(C(F)(F)F)cc1)c1c(C2CCCC2)nc2c(c1-c1ccccc1)[C@@H](O)CC1(CCC1)C2 [Example 55, (5S)-2-Cyclopentyl-4-phenyl-3-[(S)-hydroxy-(4-trifluoromethylphenyl)-methyl]-7-spirocyclobutyl-5,6,7,8-tetrahydroquinolin-5-ol] |
| 70 | – | – | – | – | CC(C)c1c([C@@H](O)c2ccc(C(F)(F)F)cc2)c(C2CCCC2)nc2c1[C@@H](O)CC1(CCC1)C2 [Example 75, (5S)-2-Cyclopentyl-4-isopropyl-3-[(S)-hydroxy-(4-trifluoromethylphenyl)-methyl]-7-spirocyclobutyl-5,6,7,8-tetrahydroquinolin-5-ol] |
| 70 | 74 | 55 | 40 | – | O[C@@H](c1ccc(C(F)(F)F)cc1)c1c(C2CCCC2)nc2c(c1-c1cccs1)[C@@H](O)CC1(CCC1)C2 [Example 63, (5S)-2-Cyclopentyl-4-(2-thienyl)-3-[(S)-hydroxy-(4-trifluoromethylphenyl)-methyl]-7-spirocyclobutyl-5,6,7,8-tetrahydroquinolin-5-ol] |
| 2000 | – | – | – | – | CCCc1c([C@@H](O)c2ccc(C(F)(F)F)cc2)c(C2CCCC2)nc2c1[C@@H](O)CC1(CCC1)C2 [Example 77, (5S)-2-Cyclopentyl-4-(1-propyl)-3-[(S)-hydroxy-(4-trifluoromethylphenyl)-methyl]-7-spirocyclobutyl-5,6,7,8-tetrahydroquinolin-5-ol] |
| 60 | – | – | – | 35 | O[C@@H](c1ccc(C(F)(F)F)cc1)c1c(C2CCCC2)nc2c(c1-c1ccsc1)[C@@H](O)CC1(CCC1)C2 [Example 59, (5S)-2-Cyclopentyl-4-(3-thienyl)-3-[(S)-hydroxy-(4-trifluoromethylphenyl)-methyl]-7-spirocyclobutyl-5,6,7,8-tetrahydroquinolin-5-ol] |
| 45 | – | – | – | 40 | CC(C)c1nc2c(c(-c3ccsc3)c1[C@@H](O)c1ccc(C(F)(F)F)cc1)[C@@H](O)CC1(CCC1)C2 [Example 57, (5S)-2-Isopropyl-4-(3-thienyl)-3-[(S)-hydroxy-(4-trifluoromethylphenyl)-methyl]-7-spirocyclobutyl-5,6,7,8-tetrahydroquinolin-5-ol] |
| 60 | – | – | – | 15 | O[C@@H](c1ccc(C(F)(F)F)cc1)c1c(C2CCCC2)nc2c(c1C1CCCCC1)[C@@H](O)CC1(CCC1)C2 [Example 67, (5S)-2-Cyclopentyl-4-cyclohexyl-3-[(S)-hydroxy-(4-trifluoromethylphenyl)-methyl]-7-spirocyclobutyl-5,6,7,8-tetrahydroquinolin-5-ol] |
| 80 | 69 | 46 | 28 | – | CC(C)c1nc2c(c(C3CCCCC3)c1[C@@H](O)c1ccc(C(F)(F)F)cc1)[C@@H](O)CC1(CCC1)C2 [Example 65, (5S)-2-Isopropyl-4-cyclohexyl-3-[(S)-hydroxy-(4-trifluoromethylphenyl)-methyl]-7-spirocyclobutyl-5,6,7,8-tetrahydroquinolin-5-ol] |
| 800 | – | – | – | – | O[C@@H](c1ccc(C(F)(F)F)cc1)c1c(C2CCCC2)nc2c(c1C1CCC1)[C@@H](O)CC1(CCC1)C2 [Example 73, (5S)-2-Cyclopentyl-4-cyclobutyl-3-[(S)-hydroxy-(4-trifluoromethylphenyl)-methyl]-7-spirocyclobutyl-5,6,7,8-tetrahydroquinolin-5-ol] |

— patent US20050043341A1, “3-'Hydroxy-(-4-trifluoromethylphenyl)-methyl-7-spirocyclobutyl-5,6,7 8-tetrahydroquinolin-5-ol derivatives and the use of the same as cholesterol ester transfer protein (cetp) inhibitors” (priority 2001, published 2005)
